From patent US7807712B2, “Oxy substituted chalcones as antihyperglycemic and antidyslipidemic agents” (priority 2004, dated 2010)
Where two headings read alike, the source gives them in different places.

Key:
[1] = test system: triton WR-1339 induced hyperlipidemic rats; test: Triton model, antidyslipidemic activity; assay type: in vivo, rat (Charles foster); conditions: 100 mg/kg oral; for inhibition in vivo at 100 mg/kg: Rattus norvegicus
Experimental: Male Charles foster rats weighing 200-225 g were divided into control, hyperlipidemic and hyperlipidemic plus drug treated groups containing six animals in each group. Hyperlipidemia was induced by administration of triton WR-1339 (200 mg/kg i.p.). All animals were maintained on a special pellet diet and water ad libitum. Compounds and standard drug were macerated with 0.2% aqueous gum acacia suspension. The suspension was fed orally at the dose of 100 mg/kg simultaneously with triton in drug treated group. The animals of control group received the same amount of gum acacia by similar route of administration. At the end of the experiment, after 18 h, blood was withdrawn from retro orbital plexus and plasma was used for the assay of total cholesterol, phospholipid and triglycerides.
Cholesterol was estimated using the kit provided by Roche Diagnostics. Cholesterol esters are enzymatically hydrolyzed by cholesterol esterase (CE) to cholesterol and free fatty acids. Free cholesterol, including that originally present, is then oxidized by cholesterol oxidase (CO) to cholest-4-en-3-one and hydrogen peroxide. The hydrogen peroxide combines with hydroxy benzoic acid (HBA) and 4-aminoantipyrine (4AAA) in the presence of peroxidase (POD) to form a chromophore (quinoneimine dye), which may be quantitated at 500-505 nm. The intensity of red colour formed is directly proportional to the concentration of total cholesterol in the specimen and measured spectrophotometrically (Searcy, C. L. Diagnostic Biochemistry, 1969, McGraw Hill, New York; Ellefson, R. D.; Caraway, W. T. Fundamentals of clinical chemistry, 1976, Ed Tietz N W, 506-515.)
Triglycerides were estimated using the kit provided by Roche Diagnostics. Lipoprotein lipase hydrolyses triglycerides to yield glycerol and fatty acids. Glycerol kinase converts glycerol to glycerol-3-phosphate, which is oxidized by glycerol phosphate oxidase to dihydroxy acetone phosphate and hydrogen peroxide. In the presence of peroxidase, hydrogen peroxide oxidatively couples with 4-aminoantipyrine and 4-chloro phenol to produce red quinonimine dye. The intensity of red colour formed is directly proportional to the concentration of triglycerides in the specimen and is measured by photometrically (Wahlefeld, A. W.; Bergmeyer, H. U. Ed. Methods of enzymatic analysis, 2nd English edition, New York, N.Y., Academic press inc, 1831-1840.).
Serum (0.2 mL) and perchloric acid (1.0 mL) was digested at 180° C. for 1-1.5 h till the solution became colorless. The liberated inorganic phosphate (Pi) was measured by the method of Fiske and Subbarow (Fiske, C. H.; Subbarow, V. J. Biol. Chem. 1925, 66, 375.). 1 mL of 2.5% ammonium molybdate (prepared in 5 N sulphuric acid) and 0.5 mL reducing agent (4-amino naphthol sulphonic acid, 0.2%), sodium metabisulphite (2.4% w/v in distilled water) was added to the above tubes and mixed well. The reaction mixture was […] with 2.5 mL of triple distilled water and kept at 60° C. in water bath for 20 min. For standard, an appropriate amount of potassium dihydrogen phosphate dissolved in triple distilled water containing 2-10 μg phosphorus (Pi) was run simultaneously with the experiment tubes. The optical density of the blue colour was recorded at 620 nm against reagent blank. The values of Pi were converted into phospholipid by multiplying with 25 (a constant calibrated from Pi value of lecithin).

[2] = test system: streptozotocin-induced diabetic rats; test: Sucrose-challenged streptozotocin-induced diabetic rats (STZ-S), antihyperglycemic activity; assay type: in vivo, rat (Sprague Dawley); conditions: 100 mg/kg oral, sucrose load 2.5 g/kg, AUC vs control
Experimental: Male albino rats of Sprague Dawley strain of body weight […] were selected for this study. Streptozotocin (Sigma, USA) was dissolved in 100 mM citrate buffer pH 4.5 and calculated amount of the fresh solution was injected to overnight fasted rats (45 mg/kg) intraperitoneally. Blood glucose level was checked 48 h later by glucostrips and animals showing blood glucose values between 144 to 270 mg/dl (8 to 15 mM) were included in the experiment and termed diabetic. The diabetic animals were divided into groups consisting of five to six animals in each group. Animals of experimental groups were administered suspension of the desired test samples orally (made in 1.0% gum acacia) at a dose of 100-mg/kg-body weight. Animals of control group were given an equal amount of 1.0% gum acacia. A sucrose load of 2.5-g/kg body weight was given after 30 minutes of compound administration. After 30 minutes of post sucrose load blood glucose level was again checked by glucostrips at 30, 60, 90, 120, 180, 240, 300 min and at 24 h, respectively. Animals not found diabetic after 24 hours post treatment of the test sample were not considered and omitted from the calculations and termed as non-responders. […] Food but not water was withheld from the cages during the experimentation. Comparing the AUC of experimental and control groups determined the percent antihyperglycemic activity. Statistical comparison between groups was made by Student's ‘t’ test.

sucrose loaded rats = test: Sucrose loaded rat model (SLM), antihyperglycemic activity; assay type: in vivo, rat (Charles Foster/Wistar); conditions: 100 mg/kg oral, sucrose load 10.0 g/kg, AUC vs control, 30-120 min; for inhibition in vivo at 100 mg/kg: Rattus norvegicus, 2 h, read-out: % Fall in blood glucose levels SLM
Experimental: Male albino rats of Charles Foster/Wistar strain of average body weight 160±20 g were selected for this study. The blood glucose level of each animal was checked by glucometer using glucostrips (Boehringer Mannheim) after 16 h starvation. Animals showing blood glucose levels between 3.33 to 4.44 mM (60 to 80 mg/dl) were divided into groups of five to six animals in each. Animals of experimental group were administered suspension of the desired synthetic compound orally (made in 1.0% gum acacia) at a dose of 100-mg/kg-body weight. Animals of control group were given an equal amount of 1.0% gum acacia. A sucrose load (10.0 g/kg) was given to each animal orally exactly after 30 min post administration of the test sample/vehicle. Blood glucose profile of each rat was again determined at 30, 60, 90 and 120 min post administration of sucrose by glucometer. Food but not water was withheld from the cages during the course of experimentation. Quantitative glucose tolerance of each animal was calculated by Area Under Curve (AUC) method (Prism Software). Comparing the AUC of experimental and control groups determined the percentage antihyperglycemic activity. Statistical comparison was made by Dunnett's test.

[3] = plasma phospholipid after 18 h, read-out: % Fall in lipid levels (Triton model) PL
[4] = plasma total cholesterol after 18 h, read-out: % Fall in lipid levels (Triton model) TC
[5] = plasma triglycerides after 18 h, read-out: % Fall in lipid levels (Triton model) TG
[6] = plasma total cholesterol after 18 h
[7] = plasma triglycerides after 18 h

Compound `COc1ccc(/C=C/C(=O)c2cccc(OCC(O)CNC(C)C)c2)cc1` (stereo not shown) [Compound 29, 3′-[2-Hydroxy-3-iso-propylamino-propoxy]-4-methoxy-chalcone] has a melting point of 102 to 103 °C, an inhibition in vivo at 100 mg/kg [1, 3] of 27% and an inhibition in vivo at 100 mg/kg [1, 4] of 33%. For the same compound, the inhibition in vivo at 100 mg/kg [1, 5] was 27%, the “% Fall in blood glucose levels STZ-S 5 h” value [2] was “NIL” and the “% Fall in blood glucose levels STZ-S 24 h” value [2] was “NIL”. It also gave an inhibition in vivo at 100 mg/kg (sucrose loaded rats) of 6.85%.
`CC(C)CNCC(O)COc1ccc(C(=O)/C=C/c2ccc3c(c2)OCO3)cc1` (stereo not shown) [Compound 35, 4′-[3-iso-Butylamino-2-hydroxy-propoxy]-3,4-methylenedioxy-chalcone] showed a melting point of 122 to 123 °C, an inhibition in vivo at 100 mg/kg [1, 3] of 9% and an inhibition in vivo at 100 mg/kg [1, 4] of 13%. The inhibition in vivo at 100 mg/kg [1, 5] was 13%, the “% Fall in blood glucose levels STZ-S 24 h” value [2] was 11.6% and the inhibition in vivo at 100 mg/kg (sucrose loaded rats) was 23.8%.
With `CCCCNCC(O)COc1ccc(C(=O)/C=C/c2ccc(OC)cc2)cc1` (stereo not shown) [Compound 27, 4′-[3-n-Butylamino-2-hydroxy-propoxy]-4-methoxy-chalcone] the melting point was 163 to 164 °C, the inhibition in vivo at 100 mg/kg [1, 3] was 22% and the inhibition in vivo at 100 mg/kg [1, 4] was 25%. The inhibition in vivo at 100 mg/kg [1, 5] was 20%, the “% Fall in blood glucose levels STZ-S 5 h” value [2] was “NIL” and the “% Fall in blood glucose levels STZ-S 24 h” value [2] was “NIL”. It also gave an inhibition in vivo at 100 mg/kg (sucrose loaded rats) of 38%.
`COc1ccc(/C=C/C(=O)c2ccc(OCC(O)CN3CCN(c4ccccc4OC)CC3)cc2)cc1` (stereo not shown) [Compound 24, 4′-[2-Hydroxy-3-{4-(2-methoxyphenyl)-piperazin-1-yl}-propoxy]-4-methoxy-chalcone] showed a melting point of 97 to 98 °C, an inhibition in vivo at 100 mg/kg [1, 3] of 15% and an inhibition in vivo at 100 mg/kg [1, 4] of 24%. For the same compound, the inhibition in vivo at 100 mg/kg [1, 5] was 14%, the “% Fall in blood glucose levels STZ-S 24 h” value [2] was 6.18% and the inhibition in vivo at 100 mg/kg (sucrose loaded rats) was 10.8%.
For `COc1ccc(/C=C/C(=O)c2cccc(OCC(O)CNC(C)(C)C)c2)cc1` (stereo not shown) [Compound 30, 3′-[3-tert-Butylamino-2-hydroxy-propoxy]-4-methoxy-chalcone], the melting point was 83 to 84 °C, the inhibition in vivo at 100 mg/kg [1, 3] was 25% and the inhibition in vivo at 100 mg/kg [1, 4] was 27%. For the same compound, the inhibition in vivo at 100 mg/kg [1, 5] was 30%, the “% Fall in blood glucose levels STZ-S 24 h” value [2] was 11.3% and the inhibition in vivo at 100 mg/kg (sucrose loaded rats) was 20%.
Compound `O=C(/C=C/c1ccc2c(c1)OCO2)c1ccc(OCC(O)CN2CCN(c3ccccc3)CC2)cc1` (stereo not shown) [Compound 33, 4′-[2-Hydroxy-3-(4-phenylpiperazin-1-yl)-propoxy]-3,4-methylenedioxy-chalcone] has a melting point of 153 to 154 °C, an inhibition in vivo at 100 mg/kg [1, 3] of 21% and an inhibition in vivo at 100 mg/kg [1, 4] of 22%. It also gave an inhibition in vivo at 100 mg/kg [1, 5] of 16% and an inhibition in vivo at 100 mg/kg (sucrose loaded rats) of 5.03%.
`COc1ccc(/C=C/C(=O)c2ccc(OCC(O)CNCC(C)C)cc2)cc1` (stereo not shown) [Compound 21, 4′-[3-iso-Butylamino-2-hydroxy-propoxy]-4-methoxy-chalcone] showed a melting point of 76 to 77 °C, an inhibition in vivo at 100 mg/kg [1, 3] of 14% and an inhibition in vivo at 100 mg/kg [1, 4] of 5%. For the same compound, the inhibition in vivo at 100 mg/kg [1, 5] was 12% and the inhibition in vivo at 100 mg/kg (sucrose loaded rats) was 5.67%.
For `COc1ccc(C=CC(=O)c2cccc(OCCCCCOc3ccc(C=C4SC(=O)NC4=O)cc3)c2)cc1` [Compound 44, 4-Methoxy-3′-{5-[4-(thiazolidin-2,4-dione-5-ylidinemethyl)-phenoxy]-pentyloxy}-chalcone], the “% Fall in lipid levels (Triton model) PL” value ([1]; plasma phospholipid after 18 h) was 13%, the “% Fall in lipid levels (Triton model) TC” value [1, 6] was 06% and the “% Fall in lipid levels (Triton model) TG” value [1, 7] was 19%. The “% Fall in blood glucose levels SLM” value (sucrose loaded rats) was “NIL”.
Work on `COc1ccc(/C=C/C(=O)c2ccc(OCC(O)CNC(C)C)cc2)cc1` (stereo not shown) [Compound 23, 4′-[2-Hydroxy-3-iso-propylamino-propoxy]-4-methoxy-chalcone] yielded a melting point of 105 to 106 °C, an inhibition in vivo at 100 mg/kg [1, 3] of 12% and an inhibition in vivo at 100 mg/kg [1, 4] of 17%. It also gave an inhibition in vivo at 100 mg/kg [1, 5] of 22% and an inhibition in vivo at 100 mg/kg (sucrose loaded rats) of 1.41%.
For `COc1ccc(C=CC(=O)c2cccc(OCCCCOc3ccc(C=C4SC(=O)NC4=O)cc3)c2)cc1` [Compound 43, 4-Methoxy-3′-{4-[4-(thiazolidin-2,4-dione-5-ylidinemethyl)-phenoxy]-butoxy}-chalcone], the “% Fall in lipid levels (Triton model) PL” value ([1]; plasma phospholipid after 18 h) was 14%, the “% Fall in lipid levels (Triton model) TC” value [1, 6] was 04% and the “% Fall in lipid levels (Triton model) TG” value [1, 7] was 31%. For the same compound, the “% Fall in blood glucose levels SLM” value (sucrose loaded rats) was “NIL”.
For `O=C1NC(=O)C(=Cc2ccc(OCCCCOc3cccc(C(=O)C=Cc4ccc5c(c4)OCO5)c3)cc2)S1` [Compound 45, 3,4-Methylenedioxy-3′-{4-[4-(thiazolidin-2,4-dione-5-ylidinemethyl)-phenoxy]-butoxy}-chalcone], the “% Fall in lipid levels (Triton model) PL” value ([1]; plasma phospholipid after 18 h) was 21%, the “% Fall in lipid levels (Triton model) TC” value [1, 6] was 23% and the “% Fall in lipid levels (Triton model) TG” value [1, 7] was 14%. The “% Fall in blood glucose levels SLM” value (sucrose loaded rats) was 0.13%.
`COc1ccc(/C=C/C(=O)c2cccc(OCC(O)CN3CCN(c4ccccc4)CC3)c2)cc1` (stereo not shown) [Compound 28, 3′-[2-Hydroxy-3-(4-phenylpiperazin-1-yl)-propoxy]-4-methoxy-chalcone] gave a melting point of 153 to 154 °C, an inhibition in vivo at 100 mg/kg [1, 3] of 26% and an inhibition in vivo at 100 mg/kg [1, 4] of 40%. The inhibition in vivo at 100 mg/kg [1, 5] was 17% and the inhibition in vivo at 100 mg/kg (sucrose loaded rats) was 4.41%.
Compound `CNCC(O)COc1ccc(C(=O)/C=C/c2ccc(OC)cc2)cc1` (stereo not shown) [Compound 26, 4′-[2-Hydroxy-3-methylamino-propoxy]-4-methoxy-chalcone] has a melting point of 114 to 115 °C, an inhibition in vivo at 100 mg/kg [1, 3] of 28% and an inhibition in vivo at 100 mg/kg [1, 4] of 37%. For the same compound, the inhibition in vivo at 100 mg/kg [1, 5] was 39%.
Compound `COc1ccc(/C=C/C(=O)c2ccc(OCC(O)CNCCc3ccc(OC)c(OC)c3)cc2)cc1` (stereo not shown) [Compound 25, 4′-[3-{2-(3,4-Dimethoxyphenyl)-ethylamino}-2-hydroxy-propoxy]-4-methoxy-chalcone] has a melting point of 120 to 121 °C, an inhibition in vivo at 100 mg/kg [1, 3] of 10% and an inhibition in vivo at 100 mg/kg [1, 4] of 4%. For the same compound, the inhibition in vivo at 100 mg/kg [1, 5] was 33% and the “% Fall in blood glucose levels SLM” value (sucrose loaded rats) was “NIL”.
